#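 The compound was tested at five concentrations on cells cultured in 96-well plates, with a 48-hour exposure period. At the GI50, growth is halved. The concentration for full growth arrest is given as TGI.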
# Columns and labels:
# Assay in all cases: NCI tumour cell line growth inhibition, 48 h
# HT29 colon = system: HT29 colon
# CAKI-1 renal = system: CAKI-1 renal
# MDA-MB-231 breast = system: MDA-MB-231 breast
# SK-MEL-5 melanoma = system: SK-MEL-5 melanoma
# SR leukemia = system: SR leukemia
# NCI-H23 lung = system: NCI-H23 lung
# EKVX NSCLC = system: EKVX NSCLC
# M14 melanoma = system: M14 melanoma
# TK-10 renal = system: TK-10 renal
Structure (SMILES),TGI (HT29 colon),TGI (CAKI-1 renal),TGI (MDA-MB-231 breast),TGI (SK-MEL-5 melanoma),TGI (SR leukemia),TGI (NCI-H23 lung),TGI (EKVX NSCLC),TGI (M14 melanoma),TGI (TK-10 renal),GI50 (CAKI-1 renal),GI50 (SK-MEL-5 melanoma),GI50 (NCI-H23 lung),GI50 (TK-10 renal)
COC(=O)c1ccc(/C=C2\CCc3ccccc3C2=O)cc1,> 100 µM,> 100 µM,> 100 µM,> 100 µM,> 100 µM,> 100 µM,> 100 µM,> 100 µM,> 100 µM,,,,
C=C[C@@](C)(/C=C/c1ccc(O)cc1)CCC=C(C)C,32.8 µM,32.6 µM,35.8 µM,30.7 µM,32.1 µM,30.4 µM,,35.3 µM,32.3 µM,,,,
CCCCCCCCCCCCCCCCOCC(Cl)COP(=O)(O)OP(=O)(O)OCC1OC(n2cnc3c(N)ncnc32)C(O)C1O (stereo not given),> 100 µM,> 100 µM,> 100 µM,> 100 µM,,> 100 µM,> 100 µM,> 100 µM,> 100 µM,,,,
O=c1oc2ccc(Cl)cc2cc1-c1cn2ccsc2n1,> 100 µM,> 100 µM,> 100 µM,> 100 µM,> 100 µM,> 100 µM,> 100 µM,> 100 µM,> 100 µM,,,,
CC1=C2C(=O)c3ccccc3C(=O)[C@H]2C[C@@H](N2CCCCCC2=O)O1,71.2 µM,35.5 µM,53.5 µM,29.6 µM,25.7 µM,31.1 µM,57 µM,28.8 µM,37.7 µM,,,,
CC1=C2NCN(C)N=C2C(C#N)(C#N)C1(C#N)C#N,51.3 µM,17.9 µM,36.2 µM,> 71.4 µM,35.8 µM,21.4 µM,> 57.3 µM,> 66.4 µM,31 µM,,,,
COC1=CC(=O)C2=C(C1=O)[C@H]1CC[C@]3(C)[C@@H](OC(C)=O)CC[C@H]3[C@@H]1CC2,48.5 µM,> 100 µM,35.3 µM,48.8 µM,> 100 µM,> 100 µM,28.5 µM,> 100 µM,> 100 µM,,,,
C=C1CC(Cn2cc(Br)c(=O)[nH]c2=O)(c2ccc(-c3ccccc3)cc2)OC1=O (stereo not given),1.91 µM,4.41 µM,9 µM,2.55 µM,,3.4 µM,7.42 µM,3.12 µM,0.842 µM,,,,
COc1ccc(C2=C(OC(=O)N(C)C)c3cccn3-c3cc(Cl)ccc3S2)cc1,> 10 µM,> 10 µM,> 10 µM,> 10 µM,> 10 µM,> 10 µM,> 10 µM,> 10 µM,> 10 µM,,,,
CC12CC(C/C1=N/O)C(C)(C)C2 (stereo not given),> 100 µM,> 100 µM,> 100 µM,> 100 µM,,> 100 µM,> 100 µM,> 100 µM,> 100 µM,,,,
Cn1c(=O)sc2cc(C(=S)N3CCOCC3)ccc21,> 100 µM,> 100 µM,> 100 µM,> 100 µM,> 100 µM,> 100 µM,> 100 µM,> 100 µM,> 100 µM,,,,
CO[P@]1(=O)O[C@@H](c2ccccc2)[C@H](O)[C@@]1(O)c1ccccc1,> 100 µM,> 100 µM,> 100 µM,> 100 µM,> 100 µM,> 100 µM,> 100 µM,> 100 µM,> 100 µM,,,,
NS(=O)(=O)c1cc(S(N)(=O)=O)c(NC(=O)N(c2ccccc2)c2ccccc2)c(Cl)c1Cl,48.2 µM,65.2 µM,> 100 µM,33.1 µM,43.1 µM,58.2 µM,62.8 µM,51.4 µM,> 100 µM,,,,
NC(=S)N/N=C\CC(O)(C(F)(F)F)C(F)(F)F,> 10 µM,> 10 µM,> 10 µM,> 10 µM,> 10 µM,> 10 µM,> 10 µM,> 10 µM,> 10 µM,,,,
CCOC(=O)/C(C#N)=C/N(CC)/N=C/c1ccccc1,> 100 µM,> 100 µM,> 100 µM,> 100 µM,> 100 µM,> 100 µM,> 100 µM,> 100 µM,> 100 µM,,,,
CC(C)CCCC(C)[C@H]1CC[C@H]2N=C(Nc3ccccc3)CCC[C@]12C (stereo not given in full),4.09 µM,7.07 µM,3.04 µM,3 µM,4.33 µM,4.25 µM,,,9.33 µM,,,,
c1ccc([P+](c2ccccc2)(c2ccccc2)c2ccc([P+](c3ccccc3)(c3ccccc3)c3ccccc3)cc2)cc1,> 100 µM,> 100 µM,> 100 µM,> 100 µM,> 100 µM,> 100 µM,,> 100 µM,> 100 µM,,,,
CC/C(Cl)=N\OC(=O)Nc1ccc(F)cc1F,51.2 µM,3.09 µM,36.7 µM,20.6 µM,,46.5 µM,20.3 µM,22.3 µM,24.3 µM,,,,
O=S1(=O)OCCOS(=O)(=O)C1Cc1nc2ccccc2[nH]1,> 100 µM,95.4 µM,> 100 µM,> 100 µM,> 100 µM,> 100 µM,> 100 µM,> 100 µM,> 100 µM,,,,
COc1ccc(/C=C2\CCC(CNc3ccc(Br)cc3)C2=O)cc1 (stereo not given),> 100 µM,> 100 µM,> 100 µM,> 100 µM,87.2 µM,> 100 µM,> 100 µM,> 100 µM,> 100 µM,,,,
O=C1OI(C#Cc2ccccc2)c2ccccc21,20.1 µM,6.5 µM,> 55.3 µM,6.77 µM,5.53 µM,10.8 µM,9.67 µM,> 49.8 µM,13.5 µM,,,,
COC(=O)/C=C/c1ccc2c(c1)CC1(Cc3ccccc3C1)C2,> 100 µM,,> 100 µM,> 100 µM,58.1 µM,> 100 µM,> 100 µM,> 100 µM,> 100 µM,,,,
CC(C)C1CC(CO)(CNc2cc(Cl)nc(N)n2)C1 (stereo not given),> 100 µM,> 100 µM,> 100 µM,40.8 µM,> 100 µM,,> 100 µM,,> 100 µM,,,,
Nc1ncc(/C=N/O)c(NCC2(CO)CC(CCc3ccccc3)C2)n1 (stereo not given),9.07 µM,> 100 µM,21.8 µM,11.9 µM,> 100 µM,,,,,,,,

Structure (SMILES),TGI (HT29 colon),TGI (CAKI-1 renal),TGI (MDA-MB-231 breast),TGI (SK-MEL-5 melanoma),TGI (SR leukemia),TGI (NCI-H23 lung),TGI (EKVX NSCLC),TGI (M14 melanoma),TGI (TK-10 renal),GI50 (CAKI-1 renal),GI50 (SK-MEL-5 melanoma),GI50 (NCI-H23 lung),GI50 (TK-10 renal)
CC(=O)CC1(C)OC(N)=C(C#N)C1(C#N)C#N (stereo not given),> 100 µM,> 100 µM,> 100 µM,> 100 µM,,> 100 µM,> 100 µM,> 100 µM,> 100 µM,,,,
COC(=O)C(C(=O)C(=O)NC1Nc2ccc(C)cc2S1)c1nc2ccc(Cl)cc2[nH]c1=O (stereo not given),> 100 µM,> 100 µM,> 100 µM,> 100 µM,,> 100 µM,> 100 µM,,> 100 µM,,,,
O=S(=O)(O)C1CCC(O)C2[N-]CCCC21.O=S(=O)(O)C1CCC(O)C2[N-]CCCC21.[Zn+2] (stereo not given),> 100 µM,> 100 µM,> 100 µM,> 100 µM,> 100 µM,,> 100 µM,> 100 µM,> 100 µM,,,,
COC(=O)c1c(OC)cc2cc3c(c(O)c2c1C)C(=O)C1(O)C(=O)C=C(OC)C(OC(=O)CC(C)N)=C1C3=O (stereo not given),43.7 µM,> 100 µM,43.4 µM,> 100 µM,47.6 µM,> 100 µM,72.4 µM,> 100 µM,> 100 µM,,,,
CC(C)(C)c1c(C(C)(C)C)c(=O)c1=O,> 100 µM,> 100 µM,> 100 µM,> 100 µM,,> 100 µM,> 100 µM,> 100 µM,> 100 µM,,,,
CC1(C)[C@@H]2CC[C@@]1(C)[C@H](O)[C@@H]2SCc1ccccc1,29.6 µM,43.1 µM,33 µM,29.1 µM,> 100 µM,29.1 µM,34.2 µM,30.1 µM,57.8 µM,,,,
COc1cc2cc(C(=O)N3CC(CCl)c4c3cc([N+](C)(C)Cc3ccc([N+](=O)[O-])n3C)c3ccccc43)[nH]c2c(OC)c1OC (stereo not given),> 100 µM,> 19.9 µM,,4.18 µM,2.29 µM,2.49 µM,16.4 µM,> 48 µM,14.3 µM,,,,
CCCCCCOc1ccc(C(=N)N(CCCC)CCCC)c2ccccc12,,2.86 µM,,2.85 µM,,2.8 µM,,,3.14 µM,1.39 µM,1.52 µM,1.45 µM,1.57 µM
CC(C)(C)c1ccc(-c2nnc(-c3cc(C#N)cc(-c4nnc(-c5ccc(C(C)(C)C)cc5)o4)c3)o2)cc1,> 100 µM,> 100 µM,> 100 µM,> 100 µM,,> 100 µM,> 100 µM,> 100 µM,> 100 µM,,,,
O=C1CSC2(CC(/C=C/c3ccccc3Br)=NN2c2cccc(S(=O)(=O)O)c2)N1c1nc2ccccc2s1 (stereo not given),> 100 µM,> 100 µM,> 100 µM,> 100 µM,> 100 µM,> 100 µM,> 100 µM,> 100 µM,> 100 µM,,,,
N#CCCC1(CCC#N)CCCCCCC(CCC#N)(CCC#N)C(O)C1O (stereo not given),> 100 µM,> 100 µM,,> 100 µM,> 100 µM,> 100 µM,,> 100 µM,> 100 µM,,,,
CCN(CC)CCN(C)CCc1ccc(Br)cc1,> 100 µM,> 100 µM,> 100 µM,33.6 µM,> 100 µM,> 100 µM,> 100 µM,33.1 µM,> 100 µM,,,,
Cc1ccc(S(=O)(=O)N/N=C2\C3CC4CC(C3)C2C4)cc1 (stereo not given),> 100 µM,> 100 µM,> 100 µM,> 100 µM,> 100 µM,> 100 µM,,> 100 µM,> 100 µM,,,,
[N-]=[N+]=C(C(=O)C(=[N+]=[N-])C(=O)c1ccccc1)C(=O)c1ccccc1,> 100 µM,,> 100 µM,> 100 µM,,> 100 µM,> 100 µM,> 100 µM,> 100 µM,,,,
COC(=O)C(NC(=O)CSc1nnc(COc2ccc(Cl)cc2)n1-c1ccccc1)C(C)C (stereo not given),44.5 µM,25.1 µM,35.1 µM,,> 100 µM,69.3 µM,73.1 µM,58 µM,36.2 µM,,,,
Cc1cc(S(=O)(=O)O)c(NC(=O)c2oc3cc(O)ccc3c(=O)c2C)cc1Cl,> 100 µM,> 100 µM,> 100 µM,> 100 µM,,> 100 µM,> 100 µM,> 100 µM,> 100 µM,,,,
Cc1cn([C@H]2[C@@H](CO)C[C@H]2O)c(=O)[nH]c1=O,> 100 µM,> 100 µM,> 100 µM,> 100 µM,> 100 µM,> 100 µM,> 100 µM,,> 100 µM,,,,
COc1cccc(CN(C(=O)/C=C\Sc2ccccc2)C(C)(C)C)c1,> 100 µM,> 100 µM,> 100 µM,> 100 µM,,> 100 µM,> 100 µM,> 100 µM,> 100 µM,,,,
CC12CC(c3ccccc3O1)C(C(=O)Nc1cccc(F)c1)C(=O)N2 (stereo not given),> 100 µM,> 100 µM,,54.8 µM,> 100 µM,79.3 µM,> 100 µM,> 100 µM,,,,,
O=CNNC(=O)Nc1ccc(Cl)cc1,> 100 µM,,> 100 µM,> 100 µM,> 100 µM,> 100 µM,> 100 µM,> 100 µM,> 100 µM,,,,
CNc1ccc(S(=O)Nc2ccccc2)cc1 (stereo not given),> 100 µM,,> 100 µM,91.1 µM,> 100 µM,> 100 µM,> 100 µM,,> 100 µM,,,,
Cc1ccc2c(c1)CC1(C2=O)[C@H](c2ccccc2)C2C(=O)c3ccc(C)cc3C2[C@H]1c1ccccc1 (stereo not given in full),> 100 µM,> 100 µM,> 100 µM,,> 100 µM,> 100 µM,> 100 µM,> 100 µM,> 100 µM,,,,
C=CCOC(=O)CCCCCCCCCCCCCCCOC(=O)C1=C(CCC[C@@H](C)O[Si](C)(C)C(C)(C)C)NC(=O)N2[C@H](CC3(CC/C=C\[C@H](CC)O[Si](C(C)C)(C(C)C)C(C)C)OCCO3)CC[C@H]12,,> 100 µM,> 100 µM,> 100 µM,,> 100 µM,> 100 µM,> 100 µM,> 100 µM,,,,
O=C1CSc2nnc(CCCCCCCCc3nnc4n3NC(=O)CS4)n2N1,> 100 µM,> 100 µM,> 100 µM,,> 100 µM,> 100 µM,> 100 µM,> 100 µM,,,,,
